Where two headings read alike, the source gives them in different places. Square brackets hold non-standard residues; d marks the D form. Side chains are listed from the residue outwards. Peptide text beside a SMILES is read from it. * marks the point of attachment. 2Abz = Nc1ccccc1C(=O)O; Cbz = O=C(OCc1ccccc1)*; Dap = NC[C@H](N)C(=O)O; X1 = N=C(N)NCCOCC(=O)*; AEEA = NCCOCCOCC(=O)O

Data set [1] has as its system NSP4. To be noted: cited from earlier work. An excerpt: Table 2 Kinetic parameters of reported artificial substrates of NSP4. | column: kcat [s^−1]; KM [μM]; kcat/KM M^−1 × s^−1
Data set [2] deals with T1, human NSP4 (Homo sapiens, UniProt Q6UWY2).
T1 construct: made in house; host or cells: Pichia pastoris
T1 sequence (Q6UWY2 32-283): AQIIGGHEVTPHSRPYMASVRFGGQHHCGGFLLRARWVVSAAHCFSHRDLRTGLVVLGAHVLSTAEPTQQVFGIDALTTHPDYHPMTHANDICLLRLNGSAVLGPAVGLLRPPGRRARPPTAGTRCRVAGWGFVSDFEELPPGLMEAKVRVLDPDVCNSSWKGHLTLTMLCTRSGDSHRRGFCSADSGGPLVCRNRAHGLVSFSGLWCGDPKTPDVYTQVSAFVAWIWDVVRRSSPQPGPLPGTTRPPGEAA
Description: Determination of kinetic parameters (KM, kcat, kcat/KM) of substrate hydrolysis by NSP4. The format is biochemical. Particulars: for kcat/KM: calculated from kcat and KM values. The protocol: (§1) For the enzymatic studies, we used human NSP4 expressed in a Pichia pastoris expression system as described in ref. [15]. The NSP4 concentration used in the deconvolution of the library was […]. The bovine β-trypsin (Sigma Chem. Co., USA) concentration was determined by spectrophotometric titration with 4-nitrophenyl-4′-guanidinobenzoate (NPGB) at an enzyme concentration oscillating around 10^−6 M. Standardized trypsin solution was used to titrate BPTI (Sigma Chem. Co., USA) which in turn served to determine the solution concentrations of the produced NSP4. The substrate ABZ-Met-Phe-Pro-Arg-ANB-NH2 recently developed in our lab was used. The deconvolution of peptide libraries was carried out by the iterative solution method. The lyophilizates obtained for each sublibrary were dissolved in dimethyl sulfoxide (DMSO) to a final concentration of 5 mg/ml, and then diluted tenfold in an assay buffer. The fluorescence tests were performed using a FluoroStar OMEGA fluorescent microplate reader (BMG, Germany). The excitation and emission wavelengths were 320 nm and 410 nm for the ABZ/ANB. Enzymatic hydrolysis of the peptide was performed in 20 mM Tris-Cl buffer supplemented by 150 mM NaCl (pH 7.4) at 37 °C and continued over 30 min.
Assay conditions for the determination of the Michaelis constants (KM) and catalytic constants (kcat) were as noted above. The specificity constants (kcat/KM) were calculated from kcat and KM values. Measurements were performed with an enzyme concentration of 1.46 × 10^−9 M. Three to five measurements were carried out for each compound (systematic error expressed as a standard deviation never exceeded 20%). The calculated initial hydrolysis rates were used as a measure of the substrate activity of the investigated peptides. All details of kinetic studies and the method of calculating kinetic parameters have been described elsewhere.

The target of data set [3] is T1, human NSP4. Description: Iterative deconvolution in solution of library ABZ-X4-X3-X2-Arg-ANB-NH2 against NSP4. Type of data set: biochemical. To be noted: ABZ-Dap(O2(Cbz))-Dap(Cbz)-X2-Arg-ANB-NH2, 18 individual peptides; 3.4 × 10^−5 M, NSP4 1.46 × 10^−8 M (Figure 3); pH 7.4, 37 °C, 30 min; fluorescence. The protocol:
In order to construct a novel type of internally quenched library, we used different monoprotected heterobifunctional PEG moieties to diversify a library based on a diaminopropionic acid scaffold (Fig. 1 presents the library formula and its chemical components). The library was synthesized using the mix and split method via Fmoc chemistry. The formation of Dap-PEG conjugates was performed on resin via a submonomeric method (one example of DAPEG-based molecule synthesis is presented in Fig. 2). Our goal was to investigate P2, P3, and P4 subsite preferences with a fixed P1 position occupied by an Arg residue. Each peptide in the library was flanked by a C-terminal amide of 5-amino-2-nitrobenozic acid (acceptor of fluorescence) and an N-terminal 2-amino benzoic acid (fluorescence donor) pair which allowed for simultaneous UV and fluorescence monitoring. Screening process was performed using an iterative mode of deconvolution in solution.
Figure 3 The deconvolution of the library (at average concentration 3.4 × 10^−5 M) with general formula ABZ-X4-X3-X2-Arg-ANB-NH2 against NSP4 (1.46 × 10^−8 M).
For the enzymatic studies, we used human NSP4 expressed in a Pichia pastoris expression system as described in ref. [15]. […] The fluorescence tests were performed using a FluoroStar OMEGA fluorescent microplate reader (BMG, Germany). […]

The subject of data set [4] is cathepsin G (CatG). Nature of the data set: Selectivity: incubation with cathepsin G. The format is biochemical, human. Particulars: substrate 1.97 μM; CatG 10^−8 M, 8.7 nM (Figure 5A legend); pH 7.4, 37 °C, 30 min. The protocol:
(§2) Figure 5 Incubation of substrate 1 (1.97 μM) with (A) neutrophil serine proteases (cathepsin G, elastase, and proteinase 3) at a concentration of 8.7 nM; (B) set of blood-associated proteases involving cathepsins and kallikreins.
as §1, with “Enzymatic hydrolysis of the peptide was performed in 20 mM Tris-Cl buffer supplemented by 150 mM NaCl (pH 7.4) at 37 °C and continued over 30 min.” left out

Data set [5] concerns human neutrophil elastase (HNE). Nature of the data set: Selectivity: incubation with neutrophil elastase. To be noted: substrate 1.97 μM; HNE 10^−8 M, 8.7 nM (Figure 5A legend); pH 7.4, 37 °C, 30 min. Type of data set: biochemical. On the procedure:
as §2
as §1, with “Enzymatic hydrolysis of the peptide was performed in 20 mM Tris-Cl buffer supplemented by 150 mM NaCl (pH 7.4) at 37 °C and continued over 30 min.” left out

In data set [6] the test system is proteinase 3 (PR3). Description: Selectivity: incubation with proteinase 3. The format is biochemical, human. To be noted: substrate 1.97 μM; PR3 10^−8 M, 8.7 nM (Figure 5A legend); pH 7.4, 37 °C, 30 min. The protocol: as §2
as §1, with “Enzymatic hydrolysis of the peptide was performed in 20 mM Tris-Cl buffer supplemented by 150 mM NaCl (pH 7.4) at 37 °C and continued over 30 min.” left out

Data set [7] deals with KLK14. Nature of the data set: Selectivity: incubation with KLK14. The format is biochemical, human. To be noted: substrate 1.97 μM; Figure 5B; pH 7.4, 37 °C, 30 min. The protocol: as §2
as §1, with “Enzymatic hydrolysis of the peptide was performed in 20 mM Tris-Cl buffer supplemented by 150 mM NaCl (pH 7.4) at 37 °C and continued over 30 min.” left out

Data set [8] has as its system set of proteases related to blood cells, including cathepsins and kallikreins. Description: Selectivity: set of blood-associated proteases (cathepsins and kallikreins). Type of data set: biochemical. To be noted: substrate 1.97 μM, enzymes 10^−8 M, Figure 5B, pH 7.4, 37 °C, 30 min. On the procedure:
as §2
as §1, with “Enzymatic hydrolysis of the peptide was performed in 20 mM Tris-Cl buffer supplemented by 150 mM NaCl (pH 7.4) at 37 °C and continued over 30 min.” left out

Data set [9] concerns hNSP4. Nature of the data set: Detection limit of hNSP4 with substrate 1. Type of data set: biochemical, human. The protocol: The incubation of substrate 1 with decreasing amounts of hNSP4 yielded a visible fluorescence (signal-to-noise ratio of 3:1) at 10^−11 M of the studied enzyme (Fig. S8).
as §1, with “Enzymatic hydrolysis of the peptide was performed in 20 mM Tris-Cl buffer supplemented by 150 mM NaCl (pH 7.4) at 37 °C and continued over 30 min.” left out

Data set [10] concerns hNSP4. Nature of the data set: Proteolytic cleavage pattern / stability with hNSP4 by HPLC. Type of data set: biochemical, human. To be noted: hNSP4 14 nM, RP-HPLC; for stability of the cleaved fluorescent fragment with hNSP4: up to 48 h. The protocol:
Figure 4 HPLC analysis of substrate 1 (1.97 μM) incubated with hNSP4 (14 nM) at different time points: 0, 15 min, 24 h and 48 h.
For each sample of diluted substrate (concentrations 1.97 × 10^−6 M), the appropriate amount of enzyme (1.46 × 10^−8 M) was added, and the solution was incubated for 5, 30, and 60 min. The progress of the proteolytic reaction was monitored by RP-HPLC. The individual peaks resulting from the hydrolysis reaction were collected and identified using the mass spectra which were recorded on a Biflex III MALDI TOF mass spectrometer (Bruker Daltonics, Germany) using α-cyano-4-hydroxycinnamic acid as a matrix.

Data set [11] relates to NSP4. Description: NSP4-mediated proteolysis of substrate 1 in the selectivity panel. The format is biochemical, human. To be noted: substrate 1 1.97 μM; Figure 5. The protocol: as §2
as §1, with “Enzymatic hydrolysis of the peptide was performed in 20 mM Tris-Cl buffer supplemented by 150 mM NaCl (pH 7.4) at 37 °C and continued over 30 min.” left out

For data set [12] the following is noted: qualitative statement.
Where [13] appears, read: 20 mM Tris-Cl, 150 mM NaCl, pH 7.4, 37 °C, NSP4 1.46 × 10^−9 M, fluorescence ex 320 / em 410 nm, three to five measurements, SD never exceeded 20%.

On to Ac-hCha-Phe(4-guanidine)-Oic-Arg-ACC, for which, in [1] (ref [19]), the Michaelis constant (Km) is 61 ± 9.1 µM, the kcat is 2.0 ± 0.5 s⁻¹ and the kcat/KM is 32,786 M^−1 × s^−1.
For the molecule “ABZ-Dap(O2(Cbz))-Dap(Cbz)-Dap(GO1)-Arg-ANB-NH2 [substrate 1]”, the Km in [2] (setting [13]) was found to be 7.6 ± 0.5 µM. Besides, the turnover number (kcat) in data set [2] (setting [13]) worked out at 1 s⁻¹; in data set [2] (20 mM Tris-Cl, 150 mM NaCl, pH 7.4, 37 °C, NSP4 1.46 × 10^−9 M, fluorescence ex 320 / em 410 nm, three to five measurements, SD never exceeded 20%, listed as ABZ-Dap(O2(Cbz))-Dap(Cbz)-Dap(GO1)-Arg-ANB-NH2) it was 1.0 ± 0.1 s⁻¹. The kcat/KM in data set [2] (pH 7.4, 37 °C, NSP4 1.46 × 10^−9 M) was 130000 M⁻¹ s⁻¹; in [2] (pH 7.4, 37 °C, NSP4 1.46 × 10^−9 M, listed as ABZ-Dap(O2(Cbz))-Dap(Cbz)-Dap(GO1)-Arg-ANB-NH2) it was 131,579 M^−1 × s^−1; in [2] (pH 7.4, 37 °C, NSP4 1.46 × 10^−9 M, listed as the developed compound) it was “over 1.31 × 10^5 M^−1 × s^−1”. Besides, the “specificity (kcat/KM) relative to substrate selected by Kasperkiewicz et al. [19]” value in [2] (comparison with literature substrate, Kasperkiewicz et al.[19]) is 4 times higher. Further, the “proteolysis / fluorescent intensity, peptides modified at X2” value in data set [3] is “most susceptible for NSP4-mediated proteolysis”. Also, the “proteolysis by CatG” value in data set [4] is given as “no visible proteolysis”. Further, the “proteolysis by HNE” value in data set [5] was “no visible proteolysis”. In [6], the “proteolysis by PR3” value is “no visible proteolysis”. Moreover, the “degradation by KLK14 compared with NSP4” value in [7] is recorded as “to a much lesser extend to degradation by KLK14”. The “cleavage by other blood-associated proteases” value in data set [8] is reported as “No other proteolytic enzyme at a concentration of 10^−8 M was able to cleave any of the peptide bonds”. The “detection limit in words” value in [9] (NSP4 detection with substrate 1) is “subnanomolar”. The “detection limit (hNSP4 concentration giving visible fluorescence)” value in data set [9] (signal-to-noise ratio of 3:1, constant amount of substrate 1, decreasing amounts of hNSP4, Fig. S8) is on record as 10^−11 M. Moreover, in data set [10] (substrate 1 1.97 μM, 0, 15 min, 24 h, 48 h, MS identification), the “cleavage site by hNSP4” value is “cleavage of the peptide bond located between Arg and ANB-NH2”. In addition, the “susceptibility to NSP4-mediated proteolysis” value in data set [11] is given as “susceptible to NSP4-mediated proteolysis”. Further, in data set [12], the solubility in water result is given as “excellent solubility in water”.
Regarding `N=C(N)NCCC[C@H](NC(=O)[C@H](CNC(=O)COCCNC(=N)N)NC(=O)[C@H](CNC(=O)OCc1ccccc1)NC(=O)[C@H](CNC(=O)COCCOCCNC(=O)OCc1ccccc1)NC(=O)c1ccccc1N)C(=O)O` [ABZ-Dap(O2(Cbz))-Dap(Cbz)-Dap(GO1)-Arg-OH] (H-[2Abz][Dap]([AEEA-Cbz])[Dap](Cbz)[Dap](X1)R-OH), the “stability of the cleaved fluorescent fragment with hNSP4” value in data set [10] was “no further degraded up to 48 h”; in [10] (listed as cleaved N-terminal fragment of the peptidomimetic chain), “exceptional proteolytic stability”.
Regarding “MCA-PEG-Ile-Arg-Arg-Ser-Ser-Tyr-Ser-Phe-Lys(Dnp)-Lys”, in data set [1] (ref [18]), the Km is 13.8 ± 3.3 µM, the kcat was 0.136 ± 0.008 s⁻¹ and the kcat/KM is listed as 10,000 M^−1 × s^−1.

The record behind these values is PMC4783772, “PEGylated substrates of NSP4 protease: A tool to study protease specificity” (Scientific Reports, 2016).
